From patent US20040197838A1, “Phosphorylated histone h2b as apoptosis marker” (priority 2001, published 2004)
Substitutions are numbered along the chain they refer to.

How the values were obtained:
HL-60 cells [1] = assay: Western blots of histones from HL-60 cells after cytotoxic agent treatment; assay type: cell-based, human; conditions: for Levels of H2B S14 Phons Induction: etoposide 20 ug/mL, anisomycin 25 ng/mL, anti-Fas 15 ng/mL
Description: (§1) Cell culture, drug and UV treatment, and harvesting for protein and DNA: HL-60 cells were cultured in RPMI with 10% FBS whereas 293T, HeLa, HepG2, and IMR90 were grown in DMEM with 10% FBS. Etoposide, anisomycin, […] and anti-Fas were purchased from Sigma. To induce apoptosis, drugs were used in these concentration 20 ug/mL for etoposide, 25 ng/mL anisomycin and 15 ng/mL anti-Fas. For UV induction of apoptosis, 40-100 J/m^2 was used (Biorad GS Gene Linker UV chamber). After induction of apoptosis the growth media was changed and harvested at various times afterward. Control cells were either treated with DMSO or mock-treated.
(§2) After the desired treatment, cells were subjected to any of the following: resuspension in SDS-lysis buffer (Laemmli's sample buffer), nuclear extraction, acid extraction for histones, or genomic DNA extraction. Nuclei were isolated by lysis in detergent and low speed spin as described in Strahl et al., (2001) Curr Biol 11, 996-1000. These nuclei can either be salt extracted for nuclear proteins (see below) or acid extracted in 0.4 N H2SO4. After incubating on ice for 2-4 hours, high speed centrifugation is done to remove the insoluble pellet. 5.4% of Percholic acid was added to the supernatant and the precipitated histones were resuspended in water.
(§3) Western blot analysis is performed as described in (Briggs et al., (2001) Genes Dev 15, 3286-3295) 1:1000 of α-phos (S14) H2B, 1:2500 of α-N-Mst1, 1:400 of α-myc (9E10 from Santa Cruz), 1:800 of α-PARP (UBI), 1:1000 of α-phos H2A.X (UBI), and 1:5000 of ax-Acetyl H4 primary antibodies were used. HRP-conjugated rabbit secondary (Amersham Pharmacia) was used at 1:5000. For chemiluminescence, the ECL plus kit (Amersham Pharmacia) was used for detection.
(§4) Initially, HL-60 (human leukemia cell line) cells were treated with etoposide (VP-16) to induce apoptosis. After treatment for various length of time, histones were isolated by acid extraction and examined by Western blot using the S14P antibody. […] To confirm the induction of apoptosis, soluble DNA was extracted from parallel samples at identical time points. The appearance of a ‘DNA ladder’, indicative of apoptotic DNA fragmentation at 4 hour post treatment, coincides precisely with the onset of H2B Ser14 phosphorylation. Furthermore, an increase of H2B S14 phosphorylation was observed that correlates with the exposure time to the etoposide.
(§5) After Cytotoxic agent treatments, cells were harvested. The level of H2B S14 phosphorylation is determined by Western blots using ePhos (S14) H2B.

HL-60 cells [2] = assay: Apoptotic DNA fragmentation (DNA ladder) after VP-16 treatment; assay type: cell-based, human
Description: Genomic DNA was harvested by lysing the cell pellet in 10 mM Tris pH 9.0, 1 mM EDTA, 10 mM NaCl, 1% w/v SDS, 1 mg/mL of proteinase K at 50° C. for 4-5 hours. To remove proteins, a phenol/chloroform extraction was performed and then the DNA was precipitated in 0.3 M sodium acetate and 70% Ethanol. After centrifugation, the pellet was resuspended in TE and the RNA was digested by adding 1 mg/mL Rnase A for 1 hour at room temp. DNA was separated in 1.2% agarose TAE gel.
as §4

HepG2 = assay: Western blot for H2B S14 phosphorylation after cytotoxic agent treatment; assay type: cell-based
Description: as §1
as §2, with “5.4% of Percholic acid was added to the supernatant and the precipitated histones were resuspended in water.” left out
as §5

HL-60 cells [3] = assay: Caspase 3 inhibitor pre-incubation before VP16, Western analysis of Mst1 cleavage and H2B Ser14 phosphorylation; assay type: cell-based, human; conditions: then VP16 for 4 hours
Description: as §3
If H2B (Ser14) phosphorylation is dependent on the cleavage of Mst1, this histone modification should be sensitive to documented caspase 3 inhibitors such as the DEVD peptide. To test this prediction, HL-60 cells were pre-incubated with varying amounts of z-DEVD-fmk (Trevigen) before subsequent treatment with VP16 for 4 hours. Cell extracts were then harvested for western analysis. […] Accordingly, H2B is likely phosphorylated in vivo at Ser14 by the caspase 3-generated form of Mst1.

[4] = target: histone H2B (substrate of the in vitro kinase reactions)

COc1ccc(C[C@H]2NC[C@H](O)[C@H]2OC(C)=O)cc1 [Anisomycin]
Levels of H2B S14 Phons Induction (HL-60 cells [1]; Western blot): High

COc1cc([C@@H]2c3cc4c(cc3[C@@H](O[C@@H]3O[C@@H]5CO[C@@H](C)O[C@H]5[C@H](O)[C@H]3O)[C@H]3COC(=O)[C@H]23)OCO4)cc(OC)c1O [Etoposide (VP16), Etoposide]
Time of H2A.X phosphorylation after treatment (HL-60 cells [1]; Western blot): one
Time post treatment at which H2B phosphorylation signal is strongly enhanced (HL-60 cells [1]; Western blot with S14P antibody): around 4 hours
Levels of H2B S14 Phons Induction (HL-60 cells [1]; Western blot): High
Time post treatment of appearance of DNA ladder (apoptotic DNA fragmentation) (HL-60 cells [2]): 4 h

COS(C)(=O)=O [MMS]
Levels of H2B S14 Phons Induction (HepG2): Medium

z-DEVD-fmk
H2B phosphorylation (HL-60 cells [3]; 20 mM inhibitor): only a modest decrease
Proportion of truncated Mst1 over full length Mst1 (HL-60 cells [3]; 20 mM inhibitor): only a modest decrease
H2B Ser14 phosphorylation (HL-60 cells [3]; 200 mM inhibitor): inhibited
Mst1 cleavage (HL-60 cells [3]; 200 mM inhibitor): inhibited

B1: myc-tagged C-terminal truncated form of Mst1 (protein)
chain: METVQLRNPPRRQLKKLDEDSLTKQPEEVFDVLEKLGEGSYGSVYKAIHKETGQIVAIKQVPVESDLQEIIKEISIMQQCDSPHVVKYYGSYFKNTDLWIVMEYCGAGSVSDIIRLRNKTLTEDEIATILQSTLKGLEYLHFMRKIHRDIKAGNILLNTEGHAKLADFGVAGQLTDTMAKRNTVIGTPFWMAPEVIQEIGYNCVADIWSLGITAIEMAEGKPPYADIHPMRAIFMIPTNPPPTFRKPELWSDNFTDFVKQCLVKSPEQRATATQLLQHPFVRSAKGVSILRDLINEAMDVKLKRQESQQREVDQDDEENSEEDEMD
IP kinase reaction with non-radioactive ATP, Western blot with the S14P antibody [4]: both Mst1 FL and DC phosphorylate H2B at Ser14 as detected by the S14P antibody
in vitro kinase assay on myc immunoprecipitates, with g(32P)-ATP or cold ATP [4]: Strong phosphorylation of H2B was detected with both full length and DC Mst1

B2: myc-tagged full length Mst1 (protein)
chain: METVQLRNPPRRQLKKLDEDSLTKQPEEVFDVLEKLGEGSYGSVYKAIHKETGQIVAIKQVPVESDLQEIIKEISIMQQCDSPHVVKYYGSYFKNTDLWIVMEYCGAGSVSDIIRLRNKTLTEDEIATILQSTLKGLEYLHFMRKIHRDIKAGNILLNTEGHAKLADFGVAGQLTDTMAKRNTVIGTPFWMAPEVIQEIGYNCVADIWSLGITAIEMAEGKPPYADIHPMRAIFMIPTNPPPTFRKPELWSDNFTDFVKQCLVKSPEQRATATQLLQHPFVRSAKGVSILRDLINEAMDVKLKRQESQQREVDQDDEENSEEDEMDSGTMVRAVGDEMGTVRVASTMTDGANTMIEHDDTLPSQLGTMVINAEDEEEEGTMKRRDETMQPAKPSFLEYFEQKEKENQINSFGKSVPGPLKNSSDWKIPQDGDYEFLKSWTVEDLQKRLLALDPMMEQEIEEIRQKYQSKRQPILDAIEAKKRRQQNF
IP kinase reaction with non-radioactive ATP, Western blot with the S14P antibody [4]: both Mst1 FL and DC phosphorylate H2B at Ser14 as detected by the S14P antibody
in vitro kinase assay on myc immunoprecipitates, with g(32P)-ATP or cold ATP [4]: Strong phosphorylation of H2B was detected with both full length and DC Mst1

B3: myc-tagged kinase dead Mst1 (protein)
chain: B2 chain with K59R
in vitro kinase assay on myc immunoprecipitates, with g(32P)-ATP or cold ATP [4]: the kinase dead form Mst1 (which contains a single point mutation) did not phosphorylate H2B
